From patent publication US20050187240A1, “Aaptamine and isoaaptamine and structural modifications thereof” (The Arizona Board of Regents, Acting for and on behalf of …, priority 2004, published 2005)
≈ marks a conversion by molar mass, not a printed value. Counter-ions that a name gives are not always drawn. Like-named read-outs stand apart in the source and are kept apart here.

Experiments:
[1] = system: murine P388 lymphocytic leukemia cell line; assay: Cancer cell growth inhibition, murine P388 lymphocytic leukemia cell line; assay type: cell-based; conditions: Mus musculus
Method in brief: (§1)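 Growth inhibition in murine P388 leukemia and human cancer cell line panels (Arizona State University minipanel and NCI 60-cell screen).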

[2] = system: lung NCI-H460; assay: Cancer cell growth inhibition, lung NCI-H460; assay type: cell-based, human; conditions: Homo sapiens
Method in brief: as §1

[3] = system: colon KM 20L2; assay: Cancer cell growth inhibition, colon KM 20L2; assay type: cell-based, human; conditions: Homo sapiens
Method in brief: as §1

[4] = system: pancreas BXPC-3; assay: Cancer cell growth inhibition, pancreas BXPC-3; assay type: cell-based, human; conditions: Homo sapiens
Description: (§2) Biology The cancer cell growth inhibitory properties were examined using the murine P388 lymphocytic leukemia cell line and a selection of human cancer cell lines.
(§3) All of the synthetic products were evaluated against a minipanel of human cancer cell lines, the murine P388 lymphocytic leukemia cell line and a selection of microorganisms.

[5] = system: breast MCF-7; assay: Cancer cell growth inhibition, breast MCF-7; assay type: cell-based, human; conditions: Homo sapiens
Description: as §2, §3

[6] = system: CNS SF-268; assay: Cancer cell growth inhibition, CNS SF-268; assay type: cell-based, human; conditions: Homo sapiens
Description: as §2, §3

[7] = system: prostrate DU-145; assay: Cancer cell growth inhibition, prostate DU-145; assay type: cell-based, human; conditions: Homo sapiens
Description: as §2, §3

[8] = system: Cryptococcus neoformans; assay: Broth microdilution susceptibility assay, Cryptococcus neoformans; assay type: cell-based
[9] = system: Candida albicans; assay: Broth microdilution susceptibility assay, Candida albicans; assay type: cell-based
[10] = system: Staphylococcus aureus; assay: Broth microdilution susceptibility assay, Staphylococcus aureus; assay type: cell-based
[11] = system: Streptococcus pneumoniae; assay: Broth microdilution susceptibility assay, Streptococcus pneumoniae; assay type: cell-based
[12] = system: Enterococcus faecalis; assay: Broth microdilution susceptibility assay, Enterococcus faecalis; assay type: cell-based
[13] = system: Micrococcus luteus; assay: Broth microdilution susceptibility assay, Micrococcus luteus; assay type: cell-based
[14] = system: Escherichia coli; assay: Broth microdilution susceptibility assay, Escherichia coli; assay type: cell-based
[15] = system: Enterobacter cloacae; assay: Broth microdilution susceptibility assay, Enterobacter cloacae; assay type: cell-based
[16] = system: Stenotrophomonas maltophilia; assay: Broth microdilution susceptibility assay, Stenotrophomonas maltophilia; assay type: cell-based; conditions: read-out: Range of minimum inhibitory concentration
[17] = system: Neisseria gonorrhoeae; assay: Broth microdilution susceptibility assay, Neisseria gonorrhoeae; assay type: cell-based
[18] = system: tubulin; assay: Tubulin polymerization (assembly) inhibition; assay type: biochemical; conditions: b62 series; read-out: IC50 for inhibition of extent of tubulin assembly
Description: Only minimal inhibitory activity was observed. While compounds 15 and 8 did inhibit the rate of polymerization by over 50% at 40 μM (the highest concentration examined), an IC50 value for inhibition of assembly extent was obtained only for compound 18. […] Thus, it seems unlikely that the cytotoxic mechanism for these aaptamine analogs derives from an interaction with tubulin.
A number of the aaptamine derivatives whose synthesis is described here were examined for potential effects on tubulin assembly. These were compounds 2, 4, 5, 9a-c, and 10a-d. […] For comparison, in experiments performed contemporaneously, the potent colchicine site drug combretastatin A-4 yielded an IC50 value of about 2 μM.

[19] = Antimicrobial activity in the presence of human serum; assay type: cell-based
Excerpt: The antimicrobial activity of phenols 15 and 18 in the presence of human serum was also investigated.

[20] = system: murine P388 lymphocytic leukemia cell line and a selection of human cancer cell lines; assay: Cancer cell growth inhibition, P388 and human cancer cell line panel (summary in words); assay type: cell-based
Excerpt: as §2

[21] = read-out: Range of minimum inhibitory concentration
[22] = Table 4, read-out: Range of minimum inhibitory concentration
[23] = Table 4, Stenotrophomonas maltophil

Compound COc1cc2ccnc3c2c(c1O)NC=C3 [Compound 18, 9-Demethylaaptamine hydrobromide] has an IC50 ([1]; P388, read-out: Cancer cell growth inhibitory ED50) of 0.22 µg/mL, an IC50 ([2]; NCI-H460, read-out: Cancer cell growth inhibitory ED50) of 2 µg/mL and an IC50 ([3]; KM-20L2, read-out: Cancer cell growth inhibitory ED50) of 1.7 µg/mL. The IC50 ([4]; BXPC-3, read-out: Cancer cell growth inhibitory ED50) was 1.6 µg/mL, the IC50 ([5]; MCF7, read-out: Cancer cell growth inhibitory ED50) was 0.66 µg/mL and the IC50 ([6]; SF-268, read-out: Cancer cell growth inhibitory ED50) was 1.4 µg/mL. The IC50 ([7]; DU-145, read-out: Cancer cell growth inhibitory ED50) was 1.8 µg/mL, the MIC [8, 21] was 32 µg/mL and the MIC [9, 21] was 64 µg/mL. The MIC [10, 21] was 16 µg/mL, the MIC [11, 21] was 2 to 4 µg/mL and the MIC [12, 21] was 8 to 32 µg/mL. It also gave an MIC [13, 21] of 8 µg/mL, an MIC [14, 21] of 32 to 64 µg/mL and an MIC [15, 21] of over 64 µg/mL. The MIC [16] was over 64 µg/mL, the MIC [17, 21] was over 0.5 µg/mL and the IC50 [18] was 37 ± 4 µM. For the same compound, the “minimum inhibitory concentrations in the presence of human serum versus absence of serum” value [19] was “identical or one 2-fold dilution lower”.

COc1cc2ccnc3c2c(c1OC)N(C)C=C3 [Compound 14, 1-Methyl-8,9-dimethoxy-1H-benzo[de][1,6]naphthyridine trifluoromethane-sulfonate] gave an MIC [8, 22] of over 64 µg/mL, an MIC [9, 22] of over 64 µg/mL and an MIC [10, 22] of over 64 µg/mL. The MIC [11, 22] was 64 µg/mL (≈ 264 µM), the MIC [12, 22] was over 64 µg/mL and the MIC [13, 22] was over 64 µg/mL. It also gave an MIC [14, 22] of over 64 µg/mL, an MIC [15, 22] of over 64 µg/mL and an MIC [16, 23] of over 64 µg/mL. The MIC [17, 22] was over 64 µg/mL and the “cancer cell growth inhibitory activity” value [20] was “marginal activity”.

For CN1C=Cc2cc(O)c(O)c3nccc1c23 [Compound 7, 4-Methyl-8,9-dihydroxy-4H-benzo[de][1,6]naphthyridine], the IC50 ([1]; P388, Table 3, leukemia P-388, read-out: Cancer cell growth inhibitory ED50) was 2.2 µg/mL (≈ 10.3 µM), the IC50 ([2]; Table 3, lung NCI-H460, read-out: Cancer cell growth inhibitory ED50) was over 10 µg/mL and the IC50 ([3]; Table 3, colon KM 20L2, read-out: Cancer cell growth inhibitory ED50) was over 10 µg/mL. It also gave an IC50 ([4]; Table 3, pancreas BXPC-3, read-out: Cancer cell growth inhibitory ED50) of over 10 µg/mL, an IC50 ([5]; MCF7, Table 3, breast MCF-7, read-out: Cancer cell growth inhibitory ED50) of 4.1 µg/mL (≈ 19.1 µM) and an IC50 ([6]; Table 3, CNS SF-268, read-out: Cancer cell growth inhibitory ED50) of 5.6 µg/mL (≈ 26.1 µM). It also gave an IC50 ([7]; Table 3, prostrate DU-145, read-out: Cancer cell growth inhibitory ED50) of over 10 µg/mL, an MIC [8, 22] of over 64 µg/mL and an MIC [9, 22] of over 64 µg/mL. The MIC [10, 22] was over 64 µg/mL, the MIC [11, 22] was over 64 µg/mL and the MIC [12, 22] was over 64 µg/mL. For the same compound, the MIC [13, 22] was over 64 µg/mL, the MIC [14, 22] was over 64 µg/mL and the MIC [15, 22] was over 64 µg/mL. The MIC [16, 23] was over 64 µg/mL, the MIC [17, 22] was 64 µg/mL (≈ 299 µM) and the “cancer cell growth inhibitory activity” value [20] was “marginal activity”.
